From patent publication US20140275010A1, “QUATERNARY SALTS” (priority 2013, published 2014)

Experiments:
[1] = tested on: Panc 05.04 cells: Pancreatic cancer cells (Q699H and K700E mutations in SF3B1); assay: Cell viability assay (CellTiter-Glo), Panc 05.04 cells; assay type: cell-based; conditions: 72 hr; for Gl50 Panc 05.04: Panc 05.04 pancreatic cancer cells, SF3B1 Q699H and K700E, CellTiter-Glo; for Emax Panc 05.04: highest growth inhibition achieved in tested dose range
Procedure: (§1) Cells are seeded in 96-well plate with 2000 cells/100 uL/well and incubated overnight. Spent media was removed and fresh media containing compound (100 uL/well) with appropriate 9 concentrations are added. Each compound was treated in duplicate or triplicate manner at each concentration. DMSO concentration was adjusted to be 0.1%. Another plate was dedicated as Tz plate which was added 0.1% DMSO in media (100 uL/well) followed by CellTiter-Glo® (Promega corp., 50 uL/well) for ATP measurement as a surrogate of cell viability. Values from this plate are used as Tz. Compound treated plates are incubated for 72 hr at 37 C. Then, CellTiter-Glo® (50 uL/well) was added and ATP level was measured. Values from compound treated wells are used as Ti and DMSO treated wells are used as C.
(§2) Percentage growth inhibition was calculated as:
(§3) [(Ti−Tz)/(C−Tz)]×100 for concentrations for which Ti>/=Tz
(§4) [(Ti−Tz)/Tz]×100 for concentrations for which Ti<Tz.
(§5) *[time zero, (Tz), control growth (C), and test growth in the presence of drug with dose (Ti)] Growth inhibition of 50% (GI50) was calculated from [(Ti−Tz)/(C−Tz)]×100=50, which was the drug concentration resulting in a 50% reduction in the net protein increase in control cells during the drug incubation. The LC50 (concentration of drug resulting in a 50% reduction in the measured value at the end of the drug treatment as compared to that at the beginning) indicating a net loss of cells following treatment was calculated from [(Ti−Tz)/Tz]×100=−50.
(§6) Emax was defined as highest growth inhibition that particular compound achieved in tested dose range.

[2] = tested on: WiDr cells: Colon cancer cells (wildtype SF3B1); assay: Cell viability assay (CellTiter-Glo), WiDr cells; assay type: cell-based; conditions: 72 hr
Procedure: as §1, §2, §3, §4, §5, §6

[3] = tested on: WiDr-R cells: Colon cancer cells (chemically-induced SF3B1 mutant which is resistant to E7107 (R1074H mutation)); assay: Cell viability assay (CellTiter-Glo), WiDr-R cells; assay type: cell-based; conditions: 72 hr
Procedure: as §1, §2, §3, §4, §5, §6

[4] = tested on: Ad2 pre-mRNA splicing in HeLa nuclear extract; assay: In vitro splicing (biochemical) assay; conditions: in vitro splicing of Ad2 pre-mRNA, 30° C., 90 min, read-out: Biochem IC50
Procedure: In Vitro Splicing (Biochemical) Assay Protocol
Biotin-labeled pre-mRNA of an adenovirus type 2 construct with a deletion of intervening sequence (Ad2)^1 was prepared by in vitro transcription. The Ad2 construct containing Exon 1 (41 nt), Intron (231 nt), and Exon 2 (72 nt) was generated by gene synthesis and cloned into the EcoRI and XbaI sites of pGEM-3Z (Promega) by Genewiz. The plasmid was then linearized by XbaI digestion and purified. In vitro transcription and purification of transcribed pre-mRNA were performed using the MEGAScript T7 kit (Invitrogen) and MEGAclear kit (Invitrogen), respectively, following the manufacturer instructions. The ratio of biotin-16-UTP (Roche) to cold UTP was 1:13 to incorporate approximately two biotin molecules per spliced Ad2 mRNA.
In vitro splicing assay was performed at 30° C. in 25 μL reaction mixtures containing 95 μg HeLa nuclear extract (Promega), 47 nM Ad2 pre-mRNA, 25 U RNasin RNase inhibitor (Promega), 1×SP buffer (0.5 mM ATP, 20 mM creatine phosphate, 1.6 mM MgCl2), and compounds in DMSO (with 1% final concentration of DMSO). After 90 min of incubation, the reaction was stopped by addition of 18 μL of 5M NaCl, and the mixtures were incubated with 10 μL of M-280 streptavidin-coated magnetic beads (Invitrogen) for 30 min at room temperature to capture Ad2 pre- and spliced mRNA. The beads were washed twice with 100 uL buffer containing 10 mM Tris pH=7.5, 1 mM EDTA and 2M NaCl, and then incubated in RNA gel loading buffer containing 95% formamide at 70° C. for 10 min to elute the RNAs. Ad2 RNAs were resolved by 6% TBE-UREA gel, transferred to a nylon membrane, UV cross-linked, and probed with an IR-dye labeled streptavidin (LiCor) using LiCor detection. The amount of spliced RNA was quantified by measuring the band fluorescent intensity using LiCor software.

Row | IC50 [4] [nM] | SMILES | Gl50 Panc 05.04 [1] [nM] | Emax Panc 05.04 [1] [%] | Gl50 WiDr [2] [nM] | Gl50 WiDr-R [3] [nM]
1 | – | CC[C@H](O)[C@@H](C)[C@H]1O[C@@H]1C[C@H](C)/C=C/C=C(\C)[C@H]1OC(=O)C[C@H](O)CC[C@@](C)(O)[C@@H](OC(=O)N2CC[N+](C)(C3CCCCC3)CC2)/C=C/[C@@H]1C.[I-] [Cpd. 6] | 1593 | −8.1 | 227.0 | >1000
2 | – | CC[C@H](O)[C@@H](C)[C@H]1O[C@@H]1C[C@H](C)/C=C/C=C(\C)[C@H]1OC(=O)C[C@H](O)CC[C@@](C)(O)[C@@H](OC(=O)N2CCC[N+](C)(C)CC2)/C=C/[C@@H]1C.[I-] [Cpd. 8] | 431.6 | −74 | 568.0 | >1000
3 | – | CC[C@H](O)[C@@H](C)[C@H]1O[C@@H]1C[C@@](C)(O)/C=C/C=C(\C)[C@H]1OC(=O)CCCCC[C@@H](OC(=O)N2CC[N+](C)(C3CCCCCC3)CC2)/C=C/[C@@H]1C.[I-] [Cpd. 31] | 2458 | −22 | 3285 | >10000
4 | – | CC[C@H](O)[C@@H](C)[C@H]1O[C@@H]1C[C@H](C)/C=C/C=C(\C)[C@H]1OC(=O)C[C@H](O)CC[C@@](C)(O)[C@@H](OC(=O)N2C[C@H]3C[C@@H]2C[N+]3(C)C)/C=C/[C@@H]1C.[I-] [Cpd. 16] | 1746 | −27 | >1000 | >1000
5 | – | C=CC[N+]1(C2CCCCCC2)CCN(C(=O)O[C@H]2/C=C/[C@H](C)[C@@H](/C(C)=C/C=C/[C@](C)(O)C[C@H]3O[C@@H]3[C@H](C)[C@@H](O)CC)OC(=O)C[C@H](O)CC[C@@]2(C)O)CC1.[Br-] [Cpd. 19] | 808.7 | −45 | 551 | –
6 | 50 | CC[C@H](O)[C@@H](C)[C@H]1O[C@@H]1C[C@H](C)/C=C/C=C(\C)[C@H]1OC(=O)C[C@H](O)CC[C@@](C)(O)[C@@H](OC(=O)N2CC[N+](C)(C)CC2)/C=C/[C@@H]1C.[I-] [Cpd. 2] | 17.0 | −69 | 8.9 | >1000
7 | – | CC[C@H](O)[C@@H](C)[C@H]1O[C@@H]1C[C@H](C)/C=C/C=C(\C)[C@H]1OC(=O)C[C@H](O)CC[C@@](C)(O)[C@@H](OC(=O)N2CC3(C2)C[N+](C)(C2CCCCCC2)C3)/C=C/[C@@H]1C.[I-] [Cpd. 12] | 79.2 | −89 | 106.0 | >1000
8 | – | CC[C@H](O)[C@@H](C)[C@H]1O[C@@H]1C[C@H](C)/C=C/C=C(\C)[C@H]1OC(=O)C[C@H](O)CC[C@@](C)(O)[C@@H](OC(=O)N2CCC[N+](C)(C3CCCCC3)CC2)/C=C/[C@@H]1C.[I-] (stereo partly shown) [Cpd. 11] | 410.7 | −87 | 958.0 | >1000
9 | 10 | CC[C@H](O)[C@@H](C)[C@H]1O[C@@H]1C[C@H](C)/C=C/C=C(\C)[C@H]1OC(=O)C[C@H](O)CC[C@@](C)(O)[C@@H](OC(=O)N2CC[N+](C)(C3CCCCCC3)CC2)/C=C/[C@@H]1C.[I-] [Cpd. 1] | 0.6 | −61 | 1.1 | 368
10 | – | CC[C@H](O)[C@@H](C)[C@H]1O[C@@H]1C[C@H](C)/C=C/C=C(\C)[C@H]1OC(=O)C[C@H](O)CC[C@@](C)(O)[C@@H](OC(=O)NCCC[N+]2(C)CCOCC2)/C=C/[C@@H]1C.[I-] [Cpd. 4] | 41.5 | −75 | 67.4 | –
11 | – | CC[C@H](O)[C@@H](C)[C@H]1O[C@@H]1C[C@H](C)/C=C/C=C(\C)[C@H]1OC(=O)C[C@H](O)CC[C@@](C)(OC(=O)N2CC[N+](C)(C)CC2)[C@@H](OC(C)=O)/C=C/[C@@H]1C.[I-] [Cpd. 28] | 413.3 | −31 | 456.0 | >1000
12 | – | CCC(=O)C(C)C1OC1CC(C)(O)C=CC=C(C)C1OC(=O)CC(O)CCC(C)(O)C(OC(=O)N2CC[N+](C)(C3CCCCCC3)CC2)C=CC1C.[I-] (stereo not shown) [Cpd. 25] | 10000 | – | 5500.0 | >5500
13 | – | C=CC[N+]1(C2CCCCCC2)CCN(C(=O)O[C@H]2/C=C/[C@H](C)[C@@H](/C(C)=C/C=C/[C@](C)(O)C[C@H]3O[C@@H]3[C@H](C)[C@@H](O)CC)OC(=O)C[C@H](O)CC[C@@]2(C)O)CC1.[I-] [Cpd. 20] | 316.9 | −67.5 | 289 | –
14 | – | CC[C@H](O)[C@@H](C)[C@H]1O[C@@H]1C[C@H](C)/C=C/C=C(\C)[C@H]1OC(=O)C[C@H](O)CC[C@@](C)(OC(=O)N2CC[N+](C)(C(C)C)CC2)[C@@H](OC(C)=O)/C=C/[C@@H]1C.[I-] [Cpd. 27] | 1115 | −56 | 6781.0 | >10000
15 | – | CC[C@H](O)[C@@H](C)[C@H]1O[C@@H]1C[C@@](C)(O)/C=C/C=C(\C)[C@H]1OC(=O)C[C@H](O)CC[C@@](C)(O)[C@@H](OC(=O)N2CC[N+](Cc3ccccc3)(C3CCCCCC3)CC2)/C=C/[C@@H]1C.[Br-] [Cpd. 18] | 139.2 | −55 | 162 | –
16 | – | CC[C@H](O)[C@@H](C)[C@H]1O[C@@H]1C[C@H](C)/C=C/C=C(\C)[C@H]1OC(=O)C[C@H](O)CC[C@@](C)(O)[C@@H](OC(=O)N2CCC([N+]3(C)CCCC3)CC2)/C=C/[C@@H]1C.[I-] [Cpd. 13] | 80.4 | −61 | 44.1 | >1000
17 | – | CC[C@H](O)[C@@H](C)[C@H]1O[C@@H]1C[C@H](C)/C=C/C=C(\C)[C@H]1OC(=O)C[C@H](O)CC[C@@](C)(O)[C@@H](OC(=O)N2CCC([N+]3(C)CCCCC3)CC2)/C=C/[C@@H]1C.[I-] [Cpd. 14] | 53.3 | −70 | 51.4 | >1000
18 | – | CC[C@H](O)[C@@H](C)[C@H]1O[C@@H]1C[C@H](C)/C=C/C=C(\C)[C@H]1OC(=O)C[C@H](O)CC[C@@](C)(O)[C@@H](OC(=O)NCCC[N+](C)(C)C)/C=C/[C@@H]1C.[I-] [Cpd. 5] | 120.8 | −79 | 176.0 | >10000
19 | – | CC[C@H](O)[C@@H](C)[C@H]1O[C@@H]1C[C@H](C)/C=C/C=C(\C)[C@H]1OC(=O)C[C@H](O)CC[C@@](C)(O)[C@@H](OC(=O)N(C)C2CC[N+](C)(C)CC2)/C=C/[C@@H]1C.[I-] [Cpd. 15] | 234.8 | −53 | 117.0 | >1000
20 | – | CC[C@H](O)[C@@H](C)[C@H]1O[C@@H]1C[C@H](C)/C=C/C=C(\C)[C@H]1OC(=O)C[C@H](O)CC[C@@](C)(OC(=O)N2CC[N+](C)(C3CCCCCC3)CC2)[C@@H](OC(C)=O)/C=C/[C@@H]1C.[I-] [Cpd. 26] | 5305 | – | 1491.0 | >10000
